Measured values: patent US20250230193A1, “CYCLIC COMPOUND HAVING SELECTIVE KRAS INHIBITORY EFFECT ON HRAS AND NRAS” (CHUGAI SEIYAKU KABUSHIKI KAISHA, priority 2022, published 2025)
Where a SMILES comes first, the peptide text is derived from it. Bridges are numbered along the chain shown (N, C = ends). [ ]: non-standard residue; d: D form. The star is where a group is joined. hPhe(3-Cl-4-CF3) = N[C@@H](CCc1ccc(C(F)(F)F)c(Cl)c1)C(=O)O; NPrPhe(4-CF3) = CCCN[C@@H](Cc1ccc(C(F)(F)F)cc1)C(=O)O; NMeGly(cPent) = CN[C@H](C(=O)O)C1CCCC1; Hyp = O=C(O)[C@@H]1C[C@@H](O)CN1; NMeD = CN[C@@H](CC(=O)O)C(=O)O; NMeL = CN[C@@H](CC(C)C)C(=O)O; Morpholide = C1CN(*)CCO1; NMeA = CN[C@@H](C)C(=O)O; Ac5c = NC1(C(=O)O)CCCC1; Aze = O=C(O)[C@@H]1CCN1; Sar = CNCC(=O)O

Columns and labels:
[1] = molecular target: GDP-bound NRAS wild-type protein (Homo sapiens, UniProt P01111); experiment: Binding to NRAS by surface plasmon resonance (SPR), Single Cycle Kinetics; details: SPR
Sequence of GDP-bound NRAS wild-type protein (P01111 whole entry): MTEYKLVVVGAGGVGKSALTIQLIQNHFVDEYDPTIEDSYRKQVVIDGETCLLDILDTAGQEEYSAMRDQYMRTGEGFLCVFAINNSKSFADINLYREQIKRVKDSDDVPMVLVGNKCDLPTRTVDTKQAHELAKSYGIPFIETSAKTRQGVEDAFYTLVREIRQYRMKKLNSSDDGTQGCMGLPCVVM

[2] = molecular target: GDP-bound HRAS wild-type protein (Homo sapiens, UniProt P01112); experiment: Binding to HRAS by surface plasmon resonance (SPR), Single Cycle Kinetics; details: SPR
Sequence of GDP-bound HRAS wild-type protein (P01112 whole entry): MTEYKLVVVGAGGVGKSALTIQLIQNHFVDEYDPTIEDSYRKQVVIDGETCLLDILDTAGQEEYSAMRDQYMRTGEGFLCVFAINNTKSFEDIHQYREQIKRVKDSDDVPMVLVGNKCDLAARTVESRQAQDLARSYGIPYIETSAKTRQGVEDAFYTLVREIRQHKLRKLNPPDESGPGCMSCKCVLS

[3] = KD ratio, GDP-bound NRAS wild-type vs GDP-bound KRAS wild-type
[4] = KD ratio, GDP-bound HRAS wild-type vs GDP-bound KRAS wild-type

## CCC(CC)[C@H]1C(=O)N(C)[C@H](C(=O)N(C)C)CC(=O)N(C)[C@@H](COC)C(=O)N[C@@H]([C@@H](C)CC)C(=O)N(C)CC(=O)N(C)[C@H]2C/C=C\CCN(C2=O)[C@@H](CC2CCC(F)(F)CC2)C(=O)N(C)CC(=O)N[C@@H](CCc2ccc(C(F)(F)F)c(OC)c2)C(=O)N2C[C@@H](C)C[C@H]2C(=O)NC2(CC(C)(C)C2)C(=O)N1C [PP2442]
[1]; GDP-bound NRAS wild-type vs GDP-bound KRAS wild-type
  NRAS/KRAS (ratio of KD value with respect to NRAS to KD value with respect to KRAS): A (a compound having 10 or more and less than 20 is denoted as A)
[2]; GDP-bound HRAS wild-type vs GDP-bound KRAS wild-type
  HRAS/KRAS (ratio of KD value with respect to HRAS to KD value with respect to KRAS): A (a compound having 10 or more and less than 20 is denoted as A)

## CCO[C@@H]1C[C@H]2C(=O)NC3(CCC3)C(=O)N(C)[C@@H](C3CCCC3)C(=O)N(C)[C@H](C(=O)N(C)CCOC)CC(=O)N(C)[C@@H](C)C(=O)N[C@@H]([C@@H](C)CC)C(=O)N(C)CC(=O)N(C)[C@H]3C/C=C\CCN(C3=O)[C@@H](Cc3ccc(C(F)(F)F)cc3)C(=O)N(C)CC(=O)N[C@@H](CCc3cc(F)c(C(F)(F)F)c(F)c3)C(=O)N2C1 [PP1319]
[1]; KD ratio class
  NRAS/KRAS (ratio of KD value for GDP-bound NRAS wild-type protein to KD value for KRAS): A (a compound having 10 or more and less than 20 is denoted as A)
[2]; KD ratio class
  HRAS/KRAS (ratio of KD value for GDP-bound HRAS wild-type protein to KD value for KRAS): B (a compound having 3 or more and less than 10 is denoted as B)

## CCO[C@@H]1C[C@H]2C(=O)NC3(CC(C)(C)C3)C(=O)N(C)[C@@H](C3CCCC3)C(=O)N(C)[C@H](C(=O)N(C)C)CC(=O)N(C)[C@@H](CC(F)(F)F)C(=O)N[C@@H]([C@@H](C)CC)C(=O)N(C)CC(=O)N(C)[C@H]3C/C=C\CCN(C3=O)[C@@H](Cc3ccc(C(F)(F)F)cc3)C(=O)N(C)CC(=O)N[C@@H](CCc3ccc(C(F)(F)F)c(OC)c3)C(=O)N2C1 [PP1675]
[1]; [3]
  NRAS/KRAS (ratio of KD value for NRAS to KD value for KRAS): A (a compound having 10 or more and less than 20 is denoted as A)
[2]; [4]
  HRAS/KRAS (ratio of KD value for HRAS to KD value for KRAS): B (a compound having 3 or more and less than 10 is denoted as B)

## CCO[C@@H]1C[C@H]2C(=O)NC3(CCCC3)C(=O)N(C)[C@@H](C3CCCC3)C(=O)N(C)[C@H](C)CC(=O)N(C)[C@@H](CC(C)C)C(=O)N[C@@H]([C@@H](C)CC)C(=O)N(C)CC(=O)N(C)[C@H]3C/C=C\CCN(C3=O)[C@@H](Cc3ccc(C(F)(F)F)cc3)C(=O)N(C)CC(=O)N[C@@H](CCc3cc(F)c(C(F)(F)F)c(F)c3)C(=O)N2C1 [PP1096]
[1]; [3]
  NRAS/KRAS (ratio of KD value with respect to NRAS to KD value with respect to KRAS): B (a compound having 3 or more and less than 10 is denoted as B)
[2]; [4]
  HRAS/KRAS (ratio of KD value with respect to HRAS to KD value with respect to KRAS): B (a compound having 3 or more and less than 10 is denoted as B)

## CCC[C@H]1C(=O)N[C@@H](C2CCCCC2)C(=O)N(C)CC(=O)N(C)[C@H]2C/C=C\CCN(C2=O)[C@@H](Cc2ccc(C(F)(F)F)cc2)C(=O)N(C)CC(=O)N[C@@H](CCc2ccc(C(F)(F)F)c(Cl)c2)C(=O)N2C[C@H](OCC)C[C@H]2C(=O)NC2(CC(C)(C)C2)C(=O)N(C)[C@@H](CC(C)(C)C)C(=O)N(C)[C@H](C(=O)N(C)C)CC(=O)N1C [PP3014]
[1]; KD ratio NRAS/KRAS, GDP-bound wild-type proteins
  NRAS/KRAS (ratio of KD value with respect to GDP-bound NRAS wild-type protein to KD value with respect to KRAS): AA (a compound having 20 or more is denoted as AA)
[2]; KD ratio HRAS/KRAS, GDP-bound wild-type proteins
  HRAS/KRAS (ratio of KD value with respect to GDP-bound HRAS wild-type protein to KD value with respect to KRAS): A (a compound having 10 or more and less than 20 is denoted as A)

## CCCN1C(=O)[C@@H]2CCN2C(=O)[C@H](C)N(C)C(=O)[C@H]([C@@H](C)CC)NC(=O)[C@H](CC(C)C)N(C)C(=O)C[C@@H](C(=O)N(C)C)NC(=O)[C@H](C2CCCC2)N(C)C(=O)C2(CCCC2)NC(=O)[C@@H]2CCCN2C(=O)[C@H](CCc2ccc(C(F)(F)F)c(Cl)c2)NC(=O)CN(C)C(=O)[C@@H]1Cc1ccc(C(F)(F)F)cc1 [PP0379] ([NMeL]I[NMeA][Aze][NPrPhe(4-CF3)][Sar][hPhe(3-Cl-4-CF3)]P[Ac5c][NMeGly(cPent)]D-NMe2; lactam N-11)
[1]; KD ratio NRAS/KRAS
  NRAS/KRAS (ratio of KD for GDP-bound NRAS wild-type to KD for KRAS): C (A compound having a KD ratio of 0.1 or more and less than 3 is denoted as C)
[2]; KD ratio HRAS/KRAS
  HRAS/KRAS (ratio of KD for GDP-bound HRAS wild-type to KD for KRAS): B (a compound having 3 or more and less than 10 is denoted as B)

## CCCN1C(=O)CN(C)C(=O)CN(C)C(=O)[C@H]([C@@H](C)CC)NC(=O)[C@H](CC(C)C)N(C)C(=O)C[C@@H](C(=O)N2CCOCC2)N(C)C(=O)[C@H](C2CCCC2)N(C)C(=O)C2(CCCC2)NC(=O)[C@@H]2C[C@@H](OCC)CN2C(=O)[C@H](CCc2ccc(C(F)(F)F)c(Cl)c2)NC(=O)CN(C)C(=O)[C@@H]1Cc1ccc(C(F)(F)F)cc1 [PP0233] ([NMeL]I[Sar][Sar][NPrPhe(4-CF3)][Sar][hPhe(3-Cl-4-CF3)][Hyp](Et)[Ac5c][NMeGly(cPent)][NMeD]-Morpholide; lactam N-11)
[1]; KD ratio NRAS/KRAS
  NRAS/KRAS (ratio of KD for GDP-bound NRAS wild-type to KD for KRAS): B (a compound having 3 or more and less than 10 is denoted as B)
[2]; KD ratio HRAS/KRAS
  HRAS/KRAS (ratio of KD for GDP-bound HRAS wild-type to KD for KRAS): C (A compound having a KD ratio of 0.1 or more and less than 3 is denoted as C)
